# Test results from patent publication US9371328B2, “Imidazopyridazinecarbonitriles useful as kinase inhibitors” (BRISTOL-MYERS SQUIBB COMPANY, priority 2008, dated 2016).
# Where two headings read alike, the source gives them in different places.
# Experiments:
# CK2A1 (CK2α/β) = target: T1, CK2A1 (CK2α/β) (Homo sapiens, UniProt P68400); assay: CK2 kinase assay, CK2A1 (CK2α/β); type: biochemical
# T1 construct: made in house
# Description: (§1) The effectiveness of compounds of the present invention as inhibitors of protein kinases can be readily tested by assays known to those skilled in the art. For example, in vitro protein kinase assays may be conducted with a relevant purified protein kinase and an appropriate synthetic substrate to determine the inhibitory activity of the compounds. […] Reaction mixtures were incubated at 30° C. for 1 hour, and reaction products were captured by binding to phosphocellulose (P81) filter plates. Incorporation of radioactive phosphate into the peptide substrate was determined by liquid scintillation counting. The potency of compounds in inhibiting CK2 is expressed as IC50, defined as the concentrations of compounds required to inhibit the enzymatic activity by 50%.
# (§2) The inhibitory activity of the instant compounds may also be measured by recombinant CK2 holoenzyme kinase assays. The assays were performed in U-bottom 384-well plates. The final assay volume was 30 μl prepared from 15 μl additions of enzyme and substrates (fluoresceinated peptide FL-RRRADDSDDDDD-NH2 and ATP) and test compounds in assay buffer (20 mM HEPES pH 7.4, 10 mM MgCl2, 100 mM NaCl, 0.015% Brij35 and 0.25 mM DTT). The reaction was initiated by the combination of bacterially expressed, CK2 α/β or CK2 α′/β holoenzyme with substrates and test compounds. The reaction was incubated at room temperature for 60 minutes and terminated by adding 30 μl of 35 mM EDTA to each sample. The reaction mixture was analyzed on the Caliper LABCHIP® 3000 (Caliper, Hopkinton, Mass.) by electrophoretic separation of the fluorescent substrate and phosphorylated product. Inhibition data were calculated by comparison to no enzyme control reactions for 100% inhibition and vehicle-only reactions for 0% inhibition. The final concentration of reagents in the CK2 α/β assay was 25 μM ATP, 1.5 μM FL-RRRADDSDDDDD-NH2, […] CK2 α/β holoenzyme, and 1.6% DMSO. The final concentration of reagents in the CK2 α′/β assay was 10 μM ATP, 1.5 μM FL-RRRADDSDDDDD-NH2, 100 pM CK2 α′/β holoenzyme, and 1.6% DMSO. Dose response curves were generated to determine the concentration required inhibiting 50% of kinase activity (IC50). Compounds were dissolved at 10 mM in dimethylsulfoxide (DMSO) and evaluated at eleven concentrations. IC50 values were derived by non-linear regression analysis.
# HCT116 = assay: Cell proliferation inhibition assay (MTT/MTS); type: cell-based; details: Homo sapiens, HCT-116, Table 1, 72 h with compound
# Description: Compounds were evaluated for their ability to inhibit cell proliferation, using an assay that measures mitochondrial metabolic activity, that is directly correlated with cell numbers. Cells were plated at 2000 cells/well in 96-well plates and were cultured for 24 h in RPMI-1640 supplemented with 2% fetal bovine serum, before test compounds were added. Compounds were diluted in culture medium such that the final concentration of dimethyl sulfoxide never exceeded 1%. Following the addition of compounds, the cells were cultured for an additional 72 h before cell viability was determined by measuring the conversion of 3-(4,5-dimethylthiazol-2-yl)-2,5-diphenyltetrazolium bromide (MTT) dye using the CellTiter96 kit (Promega) or by measuring the conversion of [3-(4,5-dimethylthiazol-2-yl)-5-(3-carboxymethoxyphenyl)-2-(4-sulfophenyl)-2H-tetrazolium (MTS) dye using the CELLTITER 96® AQueous (Promega).
# CK2A2 (CK2α′/β) = target: T2, CK2A2 (CK2α′/β) (Homo sapiens, UniProt P19784); assay: CK2 kinase assay, CK2A2 (CK2α′/β); type: biochemical
# T2 construct: made in house
# Description: as §1, §2
# [1] = Table 1, read-out: CK2A1 (CK2α/β) (IC50)
# [2] = Table 1, read-out: CK2A2 (CK2α′/β) (IC50)
# [3] = Table 2, comparison compounds of US 2008/0045536, read-out: CK2A1 IC50
# [4] = Table 2, comparison compounds of US 2008/0045536, read-out: CK2A2 IC50
# T2 sequence (P19784 whole entry, species assumed): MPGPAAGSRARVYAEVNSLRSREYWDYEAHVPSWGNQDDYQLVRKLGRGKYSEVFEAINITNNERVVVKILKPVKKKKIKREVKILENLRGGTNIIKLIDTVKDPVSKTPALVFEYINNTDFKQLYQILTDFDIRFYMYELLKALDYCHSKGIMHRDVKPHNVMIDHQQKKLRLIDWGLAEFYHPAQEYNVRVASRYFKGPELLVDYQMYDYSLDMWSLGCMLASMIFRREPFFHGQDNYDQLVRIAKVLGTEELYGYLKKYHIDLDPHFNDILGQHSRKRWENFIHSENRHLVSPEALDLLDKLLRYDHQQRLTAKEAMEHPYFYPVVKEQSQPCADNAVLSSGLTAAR
# T2 sequence (P67870 whole entry partner, species assumed): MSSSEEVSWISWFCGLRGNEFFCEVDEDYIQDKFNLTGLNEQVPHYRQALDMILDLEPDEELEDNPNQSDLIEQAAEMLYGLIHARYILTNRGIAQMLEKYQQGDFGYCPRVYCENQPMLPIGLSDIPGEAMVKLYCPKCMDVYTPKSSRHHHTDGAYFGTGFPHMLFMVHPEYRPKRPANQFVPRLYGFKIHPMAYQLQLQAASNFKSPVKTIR
# T1 sequence (P68400 whole entry, species assumed): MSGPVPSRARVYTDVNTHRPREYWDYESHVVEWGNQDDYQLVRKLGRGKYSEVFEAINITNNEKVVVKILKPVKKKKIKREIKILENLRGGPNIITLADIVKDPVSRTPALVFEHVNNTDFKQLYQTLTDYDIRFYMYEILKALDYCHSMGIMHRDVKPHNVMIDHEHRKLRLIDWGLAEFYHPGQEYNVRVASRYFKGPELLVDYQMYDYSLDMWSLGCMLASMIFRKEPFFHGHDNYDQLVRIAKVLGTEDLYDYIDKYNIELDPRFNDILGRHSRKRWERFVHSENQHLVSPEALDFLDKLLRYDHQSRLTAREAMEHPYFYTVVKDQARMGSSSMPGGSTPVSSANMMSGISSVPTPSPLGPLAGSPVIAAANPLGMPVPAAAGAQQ
# T1 sequence (P67870 whole entry partner, species assumed): as the sequence (P67870 whole entry partner, species assumed) above
IC50 (CK2A1 (CK2α/β); [1]) [nM],IC50 (HCT116) [nM],IC50 (CK2A2 (CK2α′/β); [2]) [nM],IC50 (CK2A1 (CK2α/β); [3]) [nM],IC50 (CK2A2 (CK2α′/β); [4]) [nM],SMILES
596,> 10000,119,–,–,"N#Cc1cnc2c(NC3CC3)cc(Nc3cccc(-c4cccnc4)c3)nn12 [Example 214, 8-(Cyclopropylamino)-6-((3-(3-pyridinyl)phenyl)amino) imidazo[1,2-b]pyridazine-3-carbonitrile]"
1310,> 1000,35.1,–,–,"N#Cc1cnc2c(NC3CC3)cc(Nc3cccc(C(=O)O)c3)nn12 [Example 44, 3-((3-Cyano-8-(cyclopropylamino)imidazo [1,2-b]pyridazin-6-yl)amino) benzoic acid]"
–,–,–,> 50000,–,"CCOc1ccc(Nc2cc(N[C@H]3CC[C@H](N)CC3)nn3ccnc23)cc1 [I(1), reference compound]"
8.2,35,1.1,–,–,"Cc1cc(Cl)c(Nc2cc(NC3CC3)c3ncc(C#N)n3n2)cc1C#N [Example 225, 6-((2-Chloro-5-cyano-4-methylphenyl)amino)-8-(cyclopropylamino)imidazo [1,2-b]pyridazine-3-carbonitrile]"
512,> 1000,115,–,–,"N#Cc1cnc2c(NC3CC3)cc(Nc3ccc(Cl)c(-c4ncco4)c3)nn12 [Example 81, 6-((4-Chloro-3-(1,3-oxazol-2-yl)phenyl)amino)-8-(cyclopropylamino)imidazo [1,2-b]pyridazine-3-carbonitrile]"
116,34,24,–,–,"COc1ccc(Nc2cc(Nc3ccc(OC(F)(F)F)c(-n4cnnc4)c3)nn3c(C#N)cnc23)nc1 [Example 111, 8-((5-Methoxy-2-pyridinyl)amino)-6-((3-(4H-1,2,4-triazol-4-yl)-4-(trifluoromethoxy)phenyl)amino)imidazo[1,2-b] pyridazine-3-carbonitrile]"
103,> 1000,12.5,–,–,"N#Cc1cnc2c(NC3CC3)cc(Nc3cc(-n4cncn4)ccc3OC(F)(F)F)nn12 [Example 167, 8-(Cyclopropylamino)-6-((5-(1H-1,2,4-triazol-1-yl)-2-(trifluoromethoxy)phenyl)amino)imidazo[1,2-b]pyridazine-3-carbonitrile]"
6670,> 1000,940,–,–,"CN1CCN(C(=O)c2ccc(Nc3cc(NC4CC4)c4ncc(C#N)n4n3)cc2N)CC1 [Example 89, 6-((3-Amino-4-((4-methyl-1-piperazinyl)carbonyl)phenyl)amino)-8-(cyclopropylamino)imidazo [1,2-b]pyridazine-3-carbonitrile]"
12.2,98,2.2,–,–,"Cc1cc(O)nc2cc(Nc3cc(NC4CC4)c4ncc(C#N)n4n3)ccc12 [Example 58, 8-(Cyclopropylamino)-6-((4-methyl-2-oxo-1,2-dihydro-7-quinolinyl)amino)imidazo[1,2-b]pyridazine-3-carbonitrile]"
7.4,41,5.2,–,–,"N#Cc1ccc(Cl)c(Nc2cc(NC3CC3)c3ncc(C#N)n3n2)c1 [Example 47, 6-((2-Chloro-5-cyanophenyl)amino)-8-(cyclopropylamino) imidazo[1,2-b]pyridazine-3-carbonitrile]"
19.7,45,4.6,–,–,"COc1ccc(-n2cncn2)cc1Nc1cc(NC2CC2)c2ncc(C#N)n2n1 [Example 160, 8-(Cyclopropylamino)-6-((2-methoxy-5-(1H-1,2,4-triazol-1-yl)phenyl)amino)imidazo [1,2-b]pyridazine-3-carbonitrile]"
–,–,–,> 50000,> 50000,"N[C@H]1CC[C@H](Nc2cc(Nc3ccccc3)c3nccn3n2)CC1 [I(7), reference compound]"
–,–,–,2690,8090,"Cc1c(N[C@H]2CC[C@H](N)CC2)nn2c(C#N)cnc2c1Nc1ccccc1 [XXV(1), reference compound]"
–,–,–,> 50000,31800,"Cc1ccc(Nc2cc(N[C@H]3CC[C@H](N)CC3)nn3ccnc23)nc1 [II(16), reference compound]"
